From patent US8198311B2, “Modulators of glucocorticoid receptor, AP-1, and/or NF-κB activity and use thereof” (Bristol-Myers Squibb Company, priority 2006, dated 2012)

How the values were obtained:
[1] = molecular target: T1, human glucocorticoid receptor (Homo sapiens, UniProt P04150); assay: Glucocorticoid Receptor Binding Assay (I), fluorescence polarization competitor kit (Fluormone GS Red); details: purified human recombinant full-length GR
T1 construct: purified human recombinant full-length glucocorticoid receptor (2 nM); purchased Invitrogen Part # 2893
T1 sequence (P04150 1-777): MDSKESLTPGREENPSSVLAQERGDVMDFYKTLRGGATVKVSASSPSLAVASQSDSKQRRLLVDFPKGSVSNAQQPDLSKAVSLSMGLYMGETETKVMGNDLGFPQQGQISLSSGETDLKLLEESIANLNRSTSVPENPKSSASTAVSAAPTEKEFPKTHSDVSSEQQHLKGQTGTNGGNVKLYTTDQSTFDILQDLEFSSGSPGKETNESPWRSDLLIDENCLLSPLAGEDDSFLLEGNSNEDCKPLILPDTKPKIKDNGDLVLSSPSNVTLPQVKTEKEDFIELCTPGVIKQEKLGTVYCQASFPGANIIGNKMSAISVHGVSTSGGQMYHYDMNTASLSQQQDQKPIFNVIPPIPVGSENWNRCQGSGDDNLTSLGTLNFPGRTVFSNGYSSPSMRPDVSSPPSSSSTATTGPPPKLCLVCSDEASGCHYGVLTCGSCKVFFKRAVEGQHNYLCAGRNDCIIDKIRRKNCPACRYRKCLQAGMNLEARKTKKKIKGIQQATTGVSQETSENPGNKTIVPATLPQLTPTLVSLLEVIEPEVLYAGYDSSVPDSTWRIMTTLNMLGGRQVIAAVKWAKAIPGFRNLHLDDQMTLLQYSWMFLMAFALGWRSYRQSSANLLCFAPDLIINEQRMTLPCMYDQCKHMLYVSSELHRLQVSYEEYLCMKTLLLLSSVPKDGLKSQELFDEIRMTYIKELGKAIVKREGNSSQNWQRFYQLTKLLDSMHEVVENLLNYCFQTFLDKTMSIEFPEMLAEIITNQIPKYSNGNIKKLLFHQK
Experimental: In order to assess the affinity of test compounds for the human glucocorticoid receptor, a commercially available kit was used (Glucocorticoid Receptor Competitor Assay Kit, Invitrogen Part # 2893). Briefly, purified human recombinant full-length glucocorticoid receptor (2 nM) was mixed with fluorescently labeled glucocorticoid (1 nM Fluormone GS Red) in the presence or absence of test compound. After two hour incubation at room temperature in the dark, the fluorescence polarization (FP) of the samples was measured. […] Test compounds were analyzed in the concentration range from 8.5E-05 μM to 5 μM.

[2] = test system: AP-1 induced transcriptional activity; assay: Cellular Transrepressional Assay (AP-1 luciferase reporter in A549 cells, PMA-activated); format: cell-based; details: Homo sapiens, A549, 7 h, pAP-1-Luc, 10 ng/ml PMA, read-out: AP-1 (EC50, nM) (Cellular Transrepression Assay)
Experimental: To measure the ability of test molecules to inhibit AP-1 induced transcriptional activity an A549 cell was utilized which was stably transfected with a plasmid containing 7×AP-1 DNA binding sites (pAP-1-Luc plasmid, Stratagene Co. La Jolla, Calif.) followed by the gene for luciferase. Cells were activated with 10 ng/ml of phorbol myristic acid (PMA) plus or minus test molecules for 7 hours. After 7 hours a luciferase reagent was added to measure luciferase enzymatic activity in the cell. After a 10 minute incubation of luciferase reagent with cells, luminescence was measured in a TopCount luminescence counter. Repression of AP-1 activity was calculated as the percentage decrease in the signal induced by PMA alone. Test molecules were analyzed in the concentration range from 0.1 nM to 40 μM. EC50s were determined by using standard curve fitting methods such as Excel fit (Microsoft Co.).

| SMILES | Ki [1] [nM] | EC50 [2] [nM] |
| --- | --- | --- |
| CC(C)CC(c1ccc2c(cnn2-c2ccc(F)cc2)c1)C(C)(C)CNC(=O)NC1CCOCC1 (stereo not shown) [Example 37, 1-(3-(1-(4-fluorophenyl)-1H-indazol-5-yl)-2,2,5-trimethylhexyl)-3-(tetrahydro-2H-pyran-4-yl)urea] | 5.8 | > 10000 |
| CC(C)CC(c1ccc2c(cnn2-c2ccc(F)cc2)c1)C(C)(C)CNC(=O)NC1(C)CCS(=O)(=O)C1 (stereo not shown) [Example 38] | 6.3 | > 10000 |
| CC(C)CC(c1ccc2c(cnn2-c2ccc(F)cc2)c1)C(C)(C)CNC(=O)N1CC(N)C1 (stereo not shown) [Example 40, 3-amino-N-(3-(1-(4-fluorophenyl)-1H-indazol-5-yl)-2,2,5-trimethylhexyl)azetidine-1-carboxamide] | 11 | > 10000 |
| CC(C)CC(c1ccc2c(cnn2-c2ccc(F)cc2)c1)C(C)(C)CNC(=O)NC(C)(C)CN (stereo not shown) [Example 41, 1-(1-amino-2-methylpropan-2-yl)-3-(3-(1-(4-fluorophenyl)-1H-indazol-5-yl)-2,2,5-trimethylhexyl)urea] | 8.1 | > 10000 |
| CC(C)CC(c1ccc2c(cnn2-c2ccc(F)cc2)c1)C(C)(C)CNC(=O)Nc1ccccc1 (stereo not shown) [Example 50, 1-(3-(1-(4-fluorophenyl)-1H-indazol-5-yl)-2,2,5-trimethylhexyl)-3-phenylurea] | 7.5 | 223 |
| CC(C)CC(c1ccc2c(cnn2-c2ccc(F)cc2)c1)C(C)(C)CNC(=O)NC(C)(C)Cc1ccc(F)cc1 (stereo not shown) [Example 54, 1-(3-(1-(4-fluorophenyl)-1H-indazol-5-yl)-2,2,5-trimethylhexyl)-3-(1-(4-fluorophenyl)-2-methylpropan-2-yl)urea] | 22 | 285 |
| CC(C)CC(c1ccc2c(cnn2-c2ccc(F)cc2)c1)C(C)(C)CNC(=O)NC(C)(C)C(=O)Nc1ccccc1 (stereo not shown) [Example 56, 2-(3-(3-(1-(4-fluorophenyl)-1H-indazol-5-yl)-2,2,5-trimethylhexyl)ureido)-2-methyl-N-phenylpropanamide] | 6.1 | 80 |
| CC(C)CC(c1ccc2c(cnn2-c2ccc(F)cc2)c1)C(C)(C)CNC(=O)OCC(C)(C)C (stereo not shown) [Example 62, neopentyl 3-(1-(4-fluorophenyl)-1H-indazol-5-yl)-2,2,5-trimethylhexylcarbamate] | 11 | > 10000 |
| CC(C)CC(c1ccc2c(cnn2-c2ccc(F)cc2)c1)C(C)(C)CNC(=O)NC(C)(C)c1ccnc(C(C)(C)C)c1 (stereo not shown) [Example 64, 1-(2-(2-tert-butylpyridin-4-yl)propan-2-yl)-3-(3-(1-(4-fluorophenyl)-1H-indazol-5-yl)-2,2,5-trimethylhexyl)urea] | 17 | > 10000 |
| CC(C)CC(c1ccc2c(cnn2-c2ccc(F)cc2)c1)C(C)(C)CNC(=O)C(=O)C(C)(C)C (stereo not shown) [Example 67, N-(3-(1-(4-fluorophenyl)-1H-indazol-5-yl)-2,2,5-trimethylhexyl)-3,3-dimethyl-2-oxobutanamide] | 5.6 | 164 |
| CC(C)CC(c1ccc2c(cnn2-c2ccc(F)cc2)c1)C(C)(C)CNC(=O)CC(C)(C)c1ccc(Cl)cc1 (stereo not shown) [Example 68, 3-(4-chlorophenyl)-N-(3-(1-(4-fluorophenyl)-1H-indazol-5-yl)-2,2,5-trimethylhexyl)-3-methylbutanamide] | 8.1 | 271 |

These reach a lower Ki [1]. Values come first.

| Ki [1] [nM] | EC50 [2] [nM] | SMILES |
| --- | --- | --- |
| 4.3 | > 10000 | CC(C)CC(c1ccc2c(cnn2-c2ccc(F)cc2)c1)C(C)(C)CNS(=O)(=O)NC(C)(C)C (stereo not shown) [Example 63] |
| 3.2 | > 10000 | CC(C)CC(c1ccc2c(cnn2-c2ccc(F)cc2)c1)C(C)(C)CNC(=O)N1CCC[C@@H]1CO (stereo partly drawn) [Example 39, (2R)-N-(3-(1-(4-fluorophenyl)-1H-indazol-5-yl)-2,2,5-trimethylhexyl)-2-(hydroxymethyl)pyrrolidine-1-carboxamide] |
| 3.1 | 42 | CC(C)CC(c1ccc2c(cnn2-c2ccc(F)cc2)c1)C(C)(C)CNC(=O)NC(C)(C)c1ccccc1 (stereo not shown) [Example 48, 1-(3-(1-(4-fluorophenyl)-1H-indazol-5-yl)-2,2,5-trimethylhexyl)-3-(2-phenylpropan-2-yl)urea] |
| 3 | 624 | CC(C)CC(c1ccc2c(cnn2-c2ccc(F)cc2)c1)C(C)(C)CNC(=O)NC(C)(C)CC(=O)O (stereo not shown) [Example 51, 3-(3-(3-(1-(4-fluorophenyl)-1H-indazol-5-yl)-2,2,5-trimethylhexyl)ureido)-3-methylbutanoic acid] |
| 3 | 177 | CC(C)CC(c1ccc2c(cnn2-c2ccc(F)cc2)c1)C(C)(C)CNC(=O)CC(C)(C)C (stereo not shown) [Example 66, N-(3-(1-(4-fluorophenyl)-1H-indazol-5-yl)-2,2,5-trimethylhexyl)-3,3-dimethylbutanamide] |
| 2.7 | 54 | CC(C)CC(c1ccc2c(cnn2-c2ccc(F)cc2)c1)C(C)(C)CNC(=O)N[C@H](C)C(C)(C)C (stereo partly drawn) [Example 44, 1-((R)-3,3-dimethylbutan-2-yl)-3-(3-(1-(4-fluorophenyl)-1H-indazol-5-yl)-2,2,5-trimethylhexyl)urea] |
| 2.4 | 682 | CC(C)CC(c1ccc2c(cnn2-c2ccc(F)cc2)c1)C(C)(C)CNC(=O)NC1(CO)CCCC1 (stereo not shown) [Example 42, 1-(3-(1-(4-fluorophenyl)-1H-indazol-5-yl)-2,2,5-trimethylhexyl)-3-(1-(hydroxymethyl)cyclopentyl)urea] |
| 2.3 | 159 | CC(C)CC(c1ccc2c(cnn2-c2ccc(F)cc2)c1)C(C)(C)CNC(=O)NCC(C)(C)C (stereo not shown) [Example 35, 1-(3-(1-(4-fluorophenyl)-1H-indazol-5-yl)-2,2,5-trimethylhexyl)-3-neopentylurea] |
| 2.3 | 772 | Cc1ccc(C(C)(C)NC(=O)NCC(C)(C)C(CC(C)C)c2ccc3c(cnn3-c3ccc(F)cc3)c2)c(C)n1 (stereo not shown) [Example 52, 1-(2-(2,6-dimethylpyridin-3-yl)propan-2-yl)-3-(3-(1-(4-fluorophenyl)-1H-indazol-5-yl)-2,2,5-trimethylhexyl)urea] |
| 2.1 | 1540 | CC(C)CC(c1ccc2c(cnn2-c2ccc(F)cc2)c1)C(C)(C)CNC(=O)N[C@H](C)CO (stereo partly drawn) [Example 45, 1-(3-(1-(4-fluorophenyl)-1H-indazol-5-yl)-2,2,5-trimethylhexyl)-3-((R)-1-hydroxypropan-2-yl)urea] |
| 1.8 | 306 | Cc1cc(C(C)(C)NC(=O)NCC(C)(C)C(CC(C)C)c2ccc3c(cnn3-c3ccc(F)cc3)c2)ccn1 (stereo not shown) [Example 53, 1-(3-(1-(4-fluorophenyl)-1H-indazol-5-yl)-2,2,5-trimethylhexyl)-3-(2-(2-methylpyridin-4-yl)propan-2-yl)urea] |
| 1.5 | 6050 | CC(C)CC(c1ccc2c(cnn2-c2ccc(F)cc2)c1)C(C)(C)CNC(=O)NC(CO)CO (stereo not shown) [Example 46, 1-(1,3-dihydroxypropan-2-yl)-3-(3-(1-(4-fluorophenyl)-1H-indazol-5-yl)-2,2,5-trimethylhexyl)urea] |
| 1.4 | 698 | CC(C)CC(c1ccc2c(cnn2-c2ccc(F)cc2)c1)C(C)(C)CNC(=O)N(C)C (stereo not shown) [Example 55, 3-(3-(1-(4-fluorophenyl)-1H-indazol-5-yl)-2,2,5-trimethylhexyl)-1,1-dimethylurea] |
| 1.3 | 204 | CC(C)CC(c1ccc2c(cnn2-c2ccc(F)cc2)c1)C(C)(C)CNC(=O)N[C@@H](C)CO (stereo partly drawn) [Example 47, 1-(3-(1-(4-fluorophenyl)-1H-indazol-5-yl)-2,2,5-trimethylhexyl)-3-((S)-1-hydroxypropan-2-yl)urea] |
| 1.1 | 25 | CC(C)(CNS(=O)(=O)CC(F)(F)F)[C@@H](c1ccccc1)c1ccc2c(cnn2-c2ccc(F)cc2)c1 [Example 18, (S)-2,2,2-trifluoro-N-(3-(1-(4-fluorophenyl)-1H-indazol-5-yl)-2,2-dimethyl-3-phenylpropyl)ethanesulfonamide] |
